Test results taken from patent publication US20230339949A1, “HETEROCYCLIC SUBSTITUTED FUSED y-CARBOLINE DERIVATIVE, PREPARATION METHOD THEREFOR, INTERMEDIATE THEREOF AND USE THEREOF” (SHUJING BIOPHARMA CO., LTD, priority 2020, published 2023).
Where two headings read alike, the source gives them in different places.

Key:
[1] = biological target: T1, 5-HT2A (CHO-K1/5HT2A cells) (Homo sapiens, UniProt P28223); assay: Functional activity test on receptor (cryopreservation cells), calcium FLIPR, 5-HT2A; type: cell-based
T1 construct: expressed in transfected cells; host or cells: CHO-K1 (CHO-K1/5HT2A, cryopreserved cells)
Protocol: • (1) Cells was taken out from a liquid nitrogen tank, and the tube cap was loosened and inverted to make the liquid nitrogen flow out of the tube, then the cryopreservation tube was tightened. • (2) The cryopreservation tube was shaken rapidly at 37° C. […] 20 μL cell suspension was taken out and counted by cell counter. • (6) Dilution according to the specified conditions: 1×10^6 cells /mL, 20 μL cell suspension was added into each well of the cell plate, and finally the concentration of each well is 20,000 cells/well sequentially. • (7) The cell plate was cultured in an incubator with 5% CO2 and at 37° C. for 16-24 hours. […]
• a) The cell plate and agonist compound plate were put into the instrument, and the program of reading the plate was run. • b) 10 μL was transferred from the agonist compound plate to the cell plate, and fluorescence signal was read. • c) The EC80 of agonist was calculated using Screenworks software and 6×EC80 concentration was prepared for later use. […]

[2] = system: MK-801 induced hyperactivity behavior; assay: MK-801 induced hyperactivity behavior in mice; type: in vivo, ICR mice; settings: for ED50: Mus musculus, read-out: ED50 (half effective dose)
Protocol: The efficacy of the compounds of the present disclosure was evaluated by high activity model of mice induced by intraperitoneal injection of MK-801.
Experimental animals: ICR mice, male, 8 mice/group, Spelford (Beijing) Biotechnology Co., Ltd.
Preparation of drug: the test compounds were taken, and pure water was added, and ultrasonication was performed.
Administration route and method: gavage administration, 10 mL/kg (body weight).
(§1) Administration frequency and duration: single dose.
Animals were stratified by body weight and then randomly divided into blank group, model group, and administration group, and detailed information of administration is shown in the following table.
Mice were stratified according to body weight and then randomly divided into model group, blank group and each administration group. One hour after the gavage administration of solvent or drug, 0.3 mg/kg MK-801 was injected intraperitoneally (the blank group was injected with the same volume of physiological saline), and then the mice were put into an independent activity box (a black polyethylene box with the specification of 29 cm×29 cm×30 cm) for video recording for 60 minutes, and video analysis was performed at the end of the recording to evaluate the activity of the mice.
The experimental data were expressed as x±SD, and SPSS statistical software was used to test the homogeneity of variance. If the variance was homogeneous, single factor analysis of variance was performed, and Dunnett t test is used for pairwise comparison. The ED50 was calculated by nonlinear fitting with GraphPad Primis5 software.

D2L receptor = biological target: T2, D2L receptor (Homo sapiens, UniProt P14416); assay: Functional activity test on D2L receptor, cAMP detection (Gi antagonist test); type: cell-based; settings: cryopreserved CHO-K1/D2L/Gα15 cells, forskolin + dopamine EC90
T2 construct: expressed in transfected cells
Source text: The antagonistic effects of the compounds of the present disclosure on D2L and D2S receptors were detected by cyclic adenosine monophosphate (cAMP) detection method at cell-level.
• (1) Test compound: compounds of the embodiment of the present disclosure, self-made. • (2) Control compound: dopamine hydrochloride (Sigma, H8502), (+)-Butaclamol hydrochloride (Sigma, D033). • (3) Stable cell line:
• (1) Preparation of test compounds: the compounds of the embodiments of the present disclosure were respectively dissolved in DMSO to prepare 10 mM mother liquor, and the mother liquor was stored in the nitrogen cabinet for later use. • (2) Preparation of control compound: the control compound was dissolved in DMSO to prepare 10 mM mother liquor, and the mother liquor was repackaged and stored in the refrigerator at −80° C. for later use. • (3) IBMX was dissolved in DMSO to prepare 0.5 M stock solution and the stock solution was cryopreserved at −80° C. • (4) Forskolin was dissolved in DMSO to prepare 1 mM stock solution and the stock solution was cryopreserved at −80° C. for later use. • (5) Experimental buffer: 5× stimulation buffer was diluted to 1× with ddH2O and IBMX with a final concentration of 0.5 mM was added thereto, and the solution was mixed well for later use.
• (1) Preparation of compounds: the test compounds and positive control compound (+)-Butaclamol hydrochloride were diluted gradient using Bravo in the compound plate (Greiner-781280), and the initial concentration of working solution was 20 μM, and the working solution was diluted at 4-fold for 10 concentrations and centrifuged at 1000 rpm for 1 minute for later use. • (2) Cryopreserved D2L cells: cells was taken out from the liquid nitrogen tank and thaw in a water bath at 37° C., and the cell suspension was transferred to a centrifuge tube containing HBSS buffer, and centrifuged at 750 rpm for 5 minutes.
Cultured D2S cells: after absorbing the culture medium, the cells were washed with 3 mL PBS, sucked out, digested with 0.05% Trypsin for 3 min, terminated with equal volume of culture medium, transferred to centrifuge tube, and centrifuged at 750 rpm for 5 minutes. After absorbing the liquid, the centrifuge tube was added with a buffer solution containing HBSS and re-suspend, and centrifuged at 750 rpm for 5 minutes. • (3) The supernatant was discarded, and the precipitate was re-suspended with proper amount of experimental buffer, and 20 μL was taken for cell counting. • (4) Appropriate amount of cell suspension was removed, and the cell suspension was diluted to 2×10^5 cells/mL with experimental buffer, and the cell plate (PerkinElmer-6008280) was added with 5 μL/well cell suspension, and centrifuged at 1000 rpm for 1 minute. • (5) 5 μL/well was transferred to the cell plate with Bravo, and the cell plate was centrifuged at 1000 rpm for 1 minute, then the cell plate was closed and incubated at room temperature for 15 minutes. • (6) Forskolin was transferred to the cell plate with Tecan-D300e, and Dopamine hydrochloride with a final concentration of EC90 was transferred to the cell plate. • (7) The cell plate was centrifuged at 1000 rpm for 1 minute, then sealed and incubated at room temperature for 45 minutes. • (8) Standard curve: cAMP with the stock solution concentration of 2848 nM was diluted 4-fold continuously at 8 points according to the initial maximum concentration of 712 nM, and 10 μL/well was taken out to add to the cell plate. • (9) 10 μL/well of detection solution containing cAMP-d2 and Anti-cAMP-Cryptate (diluted with pyrolysis buffer at 1:20) was added to the cell plate, and the cell plate was centrifuged at 1000 rpm for 1 minute, and incubated at room temperature without light for 1 hour. • (10) Detection: the cell plate was centrifuged at 1000 rpm for 1 minute, and the plate was read with Envision (excitation light 340 nm, emission light 620 nm and 665 nm). […]

PK test on ICR mice = type: in vivo; settings: mouse; male ICR mice, oral gavage, 5 mg/kg single dose, plasma
Protocol: Male ICR mice were administered by oral gavage administration, and blood concentration of the compound of the present disclosure in mice was measured, and PK parameters were calculated, and the pharmacokinetics of the compound of the present disclosure was evaluated.
Preparation of drug: The test compound was taken, and physiological saline was added, and ultrasonication was performed.
Administration route and dosage: administered by oral gavage, administration dosage: 5 mg/kg, administration volume: 10 mL/kg.
as §1
ICR mice were stratified by body weight and then randomly grouped into 3 mice per group, and fasted overnight before the experiment. After oral gavage administration, at 0, 0.033, 0.083, 0.5, 1, 2, 4, 6 and 8 hours, […] of blood was collected from the mandibular vein or saphenous vein of mice and put into sample tubes containing the anticoagulant sodium heparin, and the sample tube was placed in wet ice, centrifuged at 4 000 r·min^−1 for 10 minutes, and the plasma was separated and cryopreserved in a refrigerator at −80° C. for testing.
The blood concentration-time data of the compound of the present disclosure measured by gavage administration were substituted into Winnonlin 8.2 program to calculate the main pharmacokinetic parameters. Tmax and Cmax were measured values, AUC0-t and AUC0-∞ values were calculated by trapezoidal method, and t1/2 was calculated by the concentration point at the end of elimination phase via semi-logarithmic drawing method.

[3] = male ICR mice, single gavage dose 1 h before MK-801 0.3 mg/kg i.p., activity recorded 60 min

T2 sequence (P14416 whole entry): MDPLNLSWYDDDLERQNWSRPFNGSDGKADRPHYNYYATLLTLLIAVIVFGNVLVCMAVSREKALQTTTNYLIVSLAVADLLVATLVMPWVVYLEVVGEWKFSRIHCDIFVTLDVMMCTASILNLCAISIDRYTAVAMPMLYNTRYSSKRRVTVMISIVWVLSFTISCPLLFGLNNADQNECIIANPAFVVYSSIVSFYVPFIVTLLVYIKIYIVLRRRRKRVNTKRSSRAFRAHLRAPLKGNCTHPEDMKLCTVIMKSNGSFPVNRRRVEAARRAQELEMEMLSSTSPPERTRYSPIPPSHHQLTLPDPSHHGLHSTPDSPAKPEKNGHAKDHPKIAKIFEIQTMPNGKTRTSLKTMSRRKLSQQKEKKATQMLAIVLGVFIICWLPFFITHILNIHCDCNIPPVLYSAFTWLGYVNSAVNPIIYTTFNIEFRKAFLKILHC
T1 sequence (P28223 whole entry): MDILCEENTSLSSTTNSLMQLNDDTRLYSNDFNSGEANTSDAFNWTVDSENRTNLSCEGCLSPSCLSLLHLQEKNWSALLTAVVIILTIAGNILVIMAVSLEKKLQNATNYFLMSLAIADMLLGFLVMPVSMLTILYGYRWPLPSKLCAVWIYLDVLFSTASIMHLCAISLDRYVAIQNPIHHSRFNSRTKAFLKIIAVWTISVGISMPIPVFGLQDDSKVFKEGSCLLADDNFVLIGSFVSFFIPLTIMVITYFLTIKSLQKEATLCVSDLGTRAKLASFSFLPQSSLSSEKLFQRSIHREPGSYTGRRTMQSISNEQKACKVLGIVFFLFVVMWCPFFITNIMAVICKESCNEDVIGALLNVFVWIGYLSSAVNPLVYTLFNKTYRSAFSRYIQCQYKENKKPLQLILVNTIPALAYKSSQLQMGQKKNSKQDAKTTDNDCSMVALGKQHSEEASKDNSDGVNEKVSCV

Row | SMILES | IC50 [1] [nM] | ED50 [2] [mg/kg] | MED (lowest effective dose) [2, 3] [mg/kg] | IC50 (D2L receptor) [nM] | AUC(0-inf) (PK test on ICR mice) [ng·h/mL] | AUC(0-t) (PK test on ICR mice) [ng·h/mL] | Cmax (PK test on ICR mice) [ng/mL] | Tmax (PK test on ICR mice) [min] | half-life (PK test on ICR mice) [min] | ED50 [2, 3] [mg/kg] | IC50 ([1]; cryopreserved CHO-K1/5HT2A cells, calcium fluorescence (FLIPR), antagonist mode vs serotonin EC80, read-out: 5-HT2A IC50) [nM]
1 | CN1C(=O)CN2c3c1cccc3C1(C)CN(CCCC(=O)c3ccc(F)cc3)CCC21 (stereo not drawn) [Embodiment 1, 8-(4-(4-fluorophenyl)-4-oxobutyl)-3,6b-dimethyl-6b,7,8,9,10,10a-hexahydro-1H-pyrido[3′,4′:4,5]pyrrolo[1,2,3-de]quinoxalin-2(3H)-one] | 50.5 | 0.11 | 0.1 | 20.3 |  |  |  |  |  |  | 
2 | CN1C(=O)CN2c3c1cccc3[C@]1(C)CN(CCCC(=O)c3ccc(F)cc3)CC[C@H]21 [Embodiment 1-A, (6bR,10aS)-8-(4-(4-fluorophenyl)-4-oxobutyl)-3,6b-dimethyl-6b,7,8,9,10,10a-hexahydro-1H-pyrido[3′,4′:4,5]pyrrolo [1,2,3-de]quinoxalin-2(3H)-one] |  |  | 0.03 | 30.9 | 190 | 155 | 109 | 10.2 | 188 | 0.08 | 
3 | CN1CCN2c3c(cccc31)[C@@H]1CN(CCCC(=O)c3ccc(F)cc3)CC[C@@H]12 [ITI-007, Lumateperone, reference compound] |  |  | 1 | 131 | 59.1 | 39.3 | 13.5 | 16.8 | 300 | 1.03 | 120
